# Laboratory results reported in paper PMC6589951 (Therapeutic Advances in Medical Oncology, 2019).
# “Also recorded” adds a separate entry of the source.
# Legend:
# osteoclast precursors = conditions: RANK-L and CSF-1 dependent manner; ref Investigator's Brochure, 14; cited from earlier work
# CSF-1R = conditions: read-out: IC50 CSF-1R; ref Investigator's Brochure, 14; cited from earlier work
# CD14dim/CD16+ monocytes = test: blood CD14dim/CD16+ monocyte levels; type: in vivo, human; conditions: doses as low as 800 mg daily
# PVNS/TGCT = conditions: 1000 mg daily; cited from earlier work
# mammary carcinoma = conditions: mouse model of mammary carcinoma, cited from earlier work
# [1] = tested on: patients with advanced solid tumors; test: exposure, dosing compliance and actions taken with study drug; type: in vivo, human
# [2] = pexidartinib plasma pharmacokinetics, cycle 1 day 15; type: in vivo, human; conditions: day 15, steady state
# [3] = tested on: patients with advanced solid tumors; test: phase Ib dose escalation 3+3: DLT, MTD, RP2D; type: in vivo, human
structure (smiles),measurement,setting,value
FC(F)(F)c1ccc(CNc2ccc(Cc3c[nH]c4ncc(Cl)cc34)cn2)cn1 [pexidartinib],differentiation of osteoclast precursors,osteoclast precursors,inhibit differentiation
same,reduction of CD14dim/CD16+ monocytes in the peripheral blood,CD14dim/CD16+ monocytes,near complete reduction
same,Median PFS,PVNS/TGCT,not reached
same,time in which PRs occurred,PVNS/TGCT,≤ 4 months
same,survival of study animals,mammary carcinoma; following chemotherapy,improved survival
same,tumor growth,mammary carcinoma; following chemotherapy,slower tumor growth
same,TAM recruitment following chemotherapy,mammary carcinoma,abrogate TAM recruitment
same,dose reductions as an immediate action following pexidartinib-related AE,[1]; in vivo,6 patients
same,patients missing doses of pexidartinib due to AEs of any cause,[1]; in vivo,25 (46%) patients (%)
same,patients with dose modifications of pexidartinib,[1]; in vivo,26%
same,patients with pexidartinib dose reductions,[1]; in vivo,14 (26%) patients (%)
same,recommended phase II dose (RP2D),[3]; pexidartinib in combination with weekly paclitaxel 80 mg/m^2,1600 mg/day
same,maximum tolerated dose,[3]; pexidartinib up to 1600 mg/day with weekly paclitaxel,no maximum tolerated dose was achieved; also recorded: No maximum tolerated dose was determined; also recorded: No maximum tolerated dose was reached
"CC(=O)O[C@H]1C(=O)[C@@]2(C)[C@H]([C@H](OC(=O)c3ccccc3)[C@]3(O)C[C@H](OC(=O)[C@H](O)[C@@H](NC(=O)c4ccccc4)c4ccccc4)C(C)=C1C3(C)C)[C@]1(OC(C)=O)CO[C@@H]1C[C@@H]2O [paclitaxel, reference compound]",patients with paclitaxel dose reductions,[1]; Eight patients,15%
same,omitted paclitaxel doses with AEs as reason,[1]; in vivo,54%
same,patients with paclitaxel temporarily withheld,[1]; in vivo,39%
